Laboratory results from patent US10947242B2, “[1,2,4]triazolo[1,5and#8208;A]pyrimidine compounds as PDE2 inhibitors” (Janssen Pharmaceutica NV, priority 2016, dated 2021).
Read-outs that look alike come from different tables or passages of the source.

Columns and labels:
Type in all cases: biochemical
[1] = target: T1, Human recombinant PDE2A (hPDE2A) (Homo sapiens, UniProt O00408); test: In vitro assay PDE2A (SPA, 3H-cGMP hydrolysis); settings: for IC50: read-out: hPDE2A pIC50 (converted); for Emax: read-out: hPDE2A Emax
T1 construct: His tag (inferred from metal chelate purification); made in house; host or cells: Sf9 insect cells (baculovirus)

[2] = target: T2, Human recombinant PDE3A (hPDE3A) (Homo sapiens, UniProt Q14432); test: In vitro assay PDE3A (SPA, 3H-cAMP hydrolysis);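 also: the method names PDE3A and the table heading PDE3B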
T2 construct: purchased Scottish Biomedical; host or cells: Sf9 insect cells
In short: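 Human PDE3A, cloned from brain, as partially purified Sf9 lysate. Substrate 0.4 μM cAMP plus [3H]-cAMP (2.4 μCi/ml final) in 50 mM Tris pH 7.8, 8.3 mM MgCl2, 1.7 mM EGTA, 60 min at room temperature, 1% DMSO final. Hydrolysis read by SPA scintillation counting against no-enzyme blanks and DMSO controls.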

[3] = target: T3, Human recombinant PDE10A (hPDE10A) (Homo sapiens, UniProt Q9Y233); test: In vitro assay PDE10A, human clone (SPA, 3H-cAMP hydrolysis); settings: human clone (h), default
T3 construct: His tag (inferred from metal chelate purification); made in house; host or cells: Sf9 insect cells (baculovirus)
In short: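 Human recombinant PDE10A was expressed in Sf9 cells via baculovirus and incubated with compound in 50 mM Tris pH 7.8, 8.3 mM MgCl2, 1.7 mM EGTA. Substrate was 60 nM cAMP plus 0.008 μCi 3H-cAMP for 60 min at room temperature, read by SPA scintillation counting. Controls used 1% DMSO, and blanks omitted enzyme.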

[4] = target: T4, Rat recombinant PDE10A (rPDE10A2) (Rattus norvegicus, UniProt Q9QYJ6); test: In vitro assay PDE10A, rat clone (SPA, 3H-cAMP hydrolysis)
T4 construct: His tag (inferred from metal chelate purification); made in house; host or cells: Sf9 insect cells (baculovirus)
T4 sequence (Q9QYJ6 1-794): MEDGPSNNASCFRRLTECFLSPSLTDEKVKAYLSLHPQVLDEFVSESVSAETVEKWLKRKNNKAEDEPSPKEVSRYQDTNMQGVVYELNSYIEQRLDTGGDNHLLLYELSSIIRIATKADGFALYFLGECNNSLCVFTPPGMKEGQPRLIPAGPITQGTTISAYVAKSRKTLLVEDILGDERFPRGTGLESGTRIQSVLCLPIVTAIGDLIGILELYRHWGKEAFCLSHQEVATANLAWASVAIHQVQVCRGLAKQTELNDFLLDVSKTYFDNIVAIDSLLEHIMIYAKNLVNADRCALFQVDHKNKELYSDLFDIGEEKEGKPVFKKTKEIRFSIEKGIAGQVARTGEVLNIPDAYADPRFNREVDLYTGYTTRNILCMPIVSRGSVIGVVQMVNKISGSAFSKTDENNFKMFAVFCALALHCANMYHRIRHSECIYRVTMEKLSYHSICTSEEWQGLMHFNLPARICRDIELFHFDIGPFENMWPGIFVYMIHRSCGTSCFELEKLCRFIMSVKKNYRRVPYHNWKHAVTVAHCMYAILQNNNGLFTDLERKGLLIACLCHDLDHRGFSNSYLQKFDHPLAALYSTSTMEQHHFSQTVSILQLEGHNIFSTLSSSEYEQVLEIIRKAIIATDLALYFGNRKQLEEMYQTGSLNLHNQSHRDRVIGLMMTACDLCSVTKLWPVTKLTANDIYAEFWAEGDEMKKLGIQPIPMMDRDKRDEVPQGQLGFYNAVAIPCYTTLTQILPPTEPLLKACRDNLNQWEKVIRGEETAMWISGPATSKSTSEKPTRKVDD
Procedure: Rat recombinant PDE10A (rPDE10A2) was expressed in Sf9 cells using a recombinant rPDE10A baculovirus construct. Cells were harvested after 48 h of infection and the rPDE10A protein was purified by metal chelate chromatography on Ni-sepharose 6FF. Tested compounds were dissolved and diluted in 100% DMSO to a concentration 100 fold of the final concentration in the assay. Human recombinant PDE10A ([…]) was expressed in Sf9 cells using a recombinant hPDE10A baculovirus that was made and amplified in house. Cells were harvested after 72 h of infection and the hPDE10A protein was purified by metal chelate chromatography on Ni-sepharose. Compound dilutions (0.4 μl) were added in 384 well plates to 20 μl of incubation buffer (50 mM Tris pH 7.8, 8.3 mM MgCl2, 1.7 mM EGTA). 10 μl of rPDE10A or hPDE10A enzyme in incubation buffer was added and the reaction was started by addition of 10 μl substrate to a final concentration of 60 nM cAMP and 0.008 μCi ^3H-cAMP. The reaction was incubated for 60 minutes at room temperature. After incubation, the reaction was stopped with 20 μl of stop solution consisting of 17.8 mg/ml PDE SPA (scintillation proximity assay) beads. After sedimentation of the beads during 30 minutes the radioactivity was measured in a Perkin Elmer Topcount scintillation counter and results were expressed as cpm. For blanc values the enzyme was omitted from the reaction and replaced by incubation buffer. Control values were obtained by addition of a final concentration of 1% DMSO instead of compound. A best fit curve is fitted by a minimum sum of squares method to the plot of % of control value subtracted with blanc value versus compound concentration and the half maximal inhibitory concentration (IC50) value is derived from this curve.

T1 sequence (O00408 whole entry): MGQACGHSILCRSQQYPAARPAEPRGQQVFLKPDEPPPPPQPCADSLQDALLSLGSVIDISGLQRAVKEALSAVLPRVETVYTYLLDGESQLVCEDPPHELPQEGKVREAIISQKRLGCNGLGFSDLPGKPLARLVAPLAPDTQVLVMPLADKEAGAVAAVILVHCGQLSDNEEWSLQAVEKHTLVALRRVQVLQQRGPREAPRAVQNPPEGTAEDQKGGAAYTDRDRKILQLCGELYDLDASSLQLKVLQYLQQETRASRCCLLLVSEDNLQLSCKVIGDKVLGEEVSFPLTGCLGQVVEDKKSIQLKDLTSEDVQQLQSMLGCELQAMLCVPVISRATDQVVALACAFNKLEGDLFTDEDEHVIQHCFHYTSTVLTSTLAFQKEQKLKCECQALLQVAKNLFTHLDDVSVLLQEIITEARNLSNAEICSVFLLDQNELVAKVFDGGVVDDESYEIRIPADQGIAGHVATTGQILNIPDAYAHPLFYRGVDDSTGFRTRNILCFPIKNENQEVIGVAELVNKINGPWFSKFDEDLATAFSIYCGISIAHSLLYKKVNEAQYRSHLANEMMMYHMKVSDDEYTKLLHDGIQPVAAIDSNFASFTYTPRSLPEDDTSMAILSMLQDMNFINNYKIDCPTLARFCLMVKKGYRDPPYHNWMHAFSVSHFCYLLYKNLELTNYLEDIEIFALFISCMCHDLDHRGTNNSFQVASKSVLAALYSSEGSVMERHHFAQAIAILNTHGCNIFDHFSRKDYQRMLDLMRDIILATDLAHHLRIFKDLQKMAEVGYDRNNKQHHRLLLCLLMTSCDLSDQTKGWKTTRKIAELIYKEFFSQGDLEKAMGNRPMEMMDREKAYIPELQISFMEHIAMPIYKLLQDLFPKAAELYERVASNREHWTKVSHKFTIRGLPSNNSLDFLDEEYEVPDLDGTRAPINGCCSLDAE
T3 sequence (Q9Y233 267-1055): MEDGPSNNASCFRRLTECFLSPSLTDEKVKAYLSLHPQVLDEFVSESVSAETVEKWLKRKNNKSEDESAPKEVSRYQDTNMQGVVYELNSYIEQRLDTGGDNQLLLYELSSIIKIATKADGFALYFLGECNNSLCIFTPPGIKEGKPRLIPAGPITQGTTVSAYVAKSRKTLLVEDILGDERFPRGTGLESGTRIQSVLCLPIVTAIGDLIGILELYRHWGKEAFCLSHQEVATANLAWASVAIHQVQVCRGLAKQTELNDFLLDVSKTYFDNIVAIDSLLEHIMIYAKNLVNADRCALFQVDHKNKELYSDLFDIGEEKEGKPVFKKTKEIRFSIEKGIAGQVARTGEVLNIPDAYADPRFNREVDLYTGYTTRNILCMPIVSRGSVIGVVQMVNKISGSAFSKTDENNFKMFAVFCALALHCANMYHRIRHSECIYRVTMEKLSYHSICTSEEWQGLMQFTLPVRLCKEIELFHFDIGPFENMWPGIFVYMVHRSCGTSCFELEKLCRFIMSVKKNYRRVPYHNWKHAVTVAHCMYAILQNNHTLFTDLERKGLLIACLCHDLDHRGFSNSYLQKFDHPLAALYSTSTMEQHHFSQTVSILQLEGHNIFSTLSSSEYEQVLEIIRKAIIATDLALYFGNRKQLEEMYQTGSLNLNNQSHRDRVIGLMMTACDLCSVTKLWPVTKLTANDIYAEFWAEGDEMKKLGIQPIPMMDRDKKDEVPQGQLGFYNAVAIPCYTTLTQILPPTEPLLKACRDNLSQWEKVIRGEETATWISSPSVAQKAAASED
T2 sequence (Q14432 whole entry): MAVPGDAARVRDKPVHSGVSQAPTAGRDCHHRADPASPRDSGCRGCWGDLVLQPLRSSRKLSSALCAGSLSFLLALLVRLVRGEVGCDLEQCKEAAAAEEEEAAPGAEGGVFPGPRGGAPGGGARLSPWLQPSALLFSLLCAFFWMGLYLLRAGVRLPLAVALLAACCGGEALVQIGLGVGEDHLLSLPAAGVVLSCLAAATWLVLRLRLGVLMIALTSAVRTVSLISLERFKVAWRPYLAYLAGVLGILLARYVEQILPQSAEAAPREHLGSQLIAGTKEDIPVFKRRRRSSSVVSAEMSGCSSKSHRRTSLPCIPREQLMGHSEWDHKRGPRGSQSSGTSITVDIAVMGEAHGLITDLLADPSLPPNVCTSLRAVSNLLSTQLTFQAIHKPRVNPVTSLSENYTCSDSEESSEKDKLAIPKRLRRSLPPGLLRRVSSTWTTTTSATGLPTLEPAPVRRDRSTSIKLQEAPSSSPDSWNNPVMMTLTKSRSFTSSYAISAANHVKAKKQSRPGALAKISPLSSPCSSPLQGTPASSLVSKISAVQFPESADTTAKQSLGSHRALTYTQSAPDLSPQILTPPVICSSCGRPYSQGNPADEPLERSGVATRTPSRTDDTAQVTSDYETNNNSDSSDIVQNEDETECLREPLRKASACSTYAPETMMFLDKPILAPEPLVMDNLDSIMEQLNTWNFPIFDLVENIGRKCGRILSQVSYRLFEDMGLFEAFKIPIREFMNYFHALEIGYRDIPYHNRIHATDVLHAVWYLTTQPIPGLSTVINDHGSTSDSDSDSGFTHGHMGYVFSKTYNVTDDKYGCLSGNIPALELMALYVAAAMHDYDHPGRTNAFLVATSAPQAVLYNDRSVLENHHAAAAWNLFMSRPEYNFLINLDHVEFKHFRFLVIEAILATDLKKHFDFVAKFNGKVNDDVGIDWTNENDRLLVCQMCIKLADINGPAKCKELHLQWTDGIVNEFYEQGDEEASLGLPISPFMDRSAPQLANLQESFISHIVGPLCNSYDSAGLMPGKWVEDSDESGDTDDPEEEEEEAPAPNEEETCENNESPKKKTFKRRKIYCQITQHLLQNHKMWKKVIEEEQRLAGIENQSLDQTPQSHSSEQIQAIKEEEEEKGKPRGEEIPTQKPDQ

IC50 ([1]; human recombinant PDE2A, 10 μM cGMP substrate): 0.000229 µM | Emax ([1]; human recombinant PDE2A): 104% | Emax [1]: 104% | IC50 [1]: 0.000229 µM | IC50 ([2]; hPDE3B pIC50, read-out: pIC50 (converted)): 0.145 µM | Emax ([2]; read-out: hPDE3B Emax, read-out: Emax): 96% | Emax ([3]; read-out: hPDE10A2 Emax): 101% | IC50 ([3]; read-out: hPDE10A2 pIC50 (converted)): 0.0209 µM | Emax ([4]; rat clone (r)): 98% | IC50 ([4]; rat clone (r), read-out: rPDE10A2 pIC50 (converted)): 0.012 µM | rPDE10A2 pIC50 ([4]; rat clone, indicated as (r)): 7.92 (r)
Compound: C[C@@H]1CCN(C(=O)c2ccc3c(ccn3CCF)c2)C[C@H]1c1cc(C(F)F)nc2ncnn12 [Compound 89]
